Patent US6982285B2, “Control of parasites attached to skin of fish” (Novartis Animal Health US, Inc., priority 1999, dated 2006)

Columns and labels:
salmon louse [1] = assay: In vivo preliminary test for activity against the salmon louse following manual injection; parameters: species or system salmon louse on Atlantic salmon; conditions: naturally infected Atlantic salmon; single dose 40 mg fluazuron/kg body weight injected by hand into muscle tissue below dorsal fin; inspected 24, 48 and 72 hours later; at latest after 72 hours
Protocol: 1. In Vivo Preliminary Test for Activity Against the Salmon Louse Following Manual […]
20 naturally infected Atlantic salmon of various sizes from a fish farm are transferred to a well-aerated seawater aquarium for acclimatisation. They are left there for 3 days and fed daily with the usual food. On the fourth day, they are caught individually with a fish basket and quickly weighed. Each fish is injected by hand using an injection needle with a single dose, according to formulation example 1, of 40 mg fluazuron/kg body weight into the muscle tissue below the dorsal fin. The treated fish are returned to their aquarium.

salmon louse [2] = assay: Semi-automated in vivo test for activity against the salmon louse (needleless inoculation gun); parameters: species or system salmon louse on Atlantic salmon; conditions: Atlantic salmon artificially infected with 5 pre-adult, 5 adult female and 5 adult male salmon lice; 45 mg fluazuron/kg body weight, needleless inoculation gun below dorsal fin; after 24 hours
Description: 2. Semi-Automated In Vivo Test for Activity Against the Salmon Louse.
Two well-aerated seawater aquariums, each of 5000 liter content, are set up parallel to one another at a distance of 2 m, with one being 10 cm higher than the other. The upper aquarium is provided with a kind of overflow which opens into a plexiglass channel which is open at the top and has a square inner cross-section of 10 cm. The upper end of this channel is secured by a movable grid and rests on the edge of the lower aquarium. Between the two aquariums, there is slight gradient. In the middle of the channel, two wire grids are attached with a 30 cm gap across the current, in such a way that they are either used as a water-permeable barrier or can be opened upwards on a hinge by a lever. At the bottom of the upper aquarium, there is an electrically controlled tail lift. When this is raised, the volume of water above it is diminished by reducing the depth of water. In addition, the upper aquarium contains a water feed which is secured by a grid and the lower aquarium has outlet holes. Water flows constantly from the upper to the lower aquarium. 200 Atlantic salmon of the same age are introduced into the upper aquarium and are each artificially infected with 5 pre-adult, 5 adult female and 5 adult male salmon lice. […]

sea lice = conditions: in salt water (printed for trichlorfon); cited from earlier work

Row | SMILES | parasite infestation / number of surviving parasites (salmon louse [1]) | parasite infestation / number of surviving parasites (salmon louse [2]) | concentration required / effective against sea lice (sea lice)
1 | O=C(NC(=O)c1c(F)cccc1F)Nc1ccc(Cl)c(Oc2ncc(C(F)(F)F)cc2Cl)c1 [fluazuron, 1-[4-chloro-3-(3-chloro-5-trifluoromethyl-2-pyridyloxy)phenyl]-3-(2,6-difluorobenzoyl)urea] | all the adult and pre-adult stages have been killed | all the female and male adults and pre-adult stages have been killed | –
2 | COP(=O)(OC)OC=C(Cl)Cl [dichlorvos, 2,2-dichloroethenyl-dimethylphosphate] | – | – | ≥ 1 ppm
3 | COP(=O)(OC)C(O)C(Cl)(Cl)Cl (stereo not shown) [trichlorfon, dimethyl-2,2,2-trichloro-1-hydroxyethyl-phosphonate] | – | – | 300 ppm
